Measured values from patent US7259140B2, “Heparin-binding peptides and uses thereof” (Thomas Jefferson University, priority 2003, dated 2007).
Entries after “also recorded” stand apart in the source; their conditions may differ. Blank lines part the entries; values can stand above or below the substance they belong to. Ends that are not written are not given here.

What was measured:
[1] = tested on: anti-Factor Xa Activity of the Low Molecular Weight Heparin Lovenox ®; experiment: Anti-Factor Xa assay (Stachrom Heparin kit): neutralization of Lovenox in citrate or plasma in vitro; format: biochemical, human; conditions: in both citrate and plasma
Method: (§1) The ability of peptides such as (ARKKAAKA)3VLVLVLVL (SEQ ID NO:5) to neutralize the anti-Factor Xa activity of UFH and LMWH in vitro was tested using the Stachrom Heparin kit (Diagnostica Stago), a standard hematology laboratory assay used to measure the anti-Factor Xa activity of heparin. The assay was performed using the low molecular weight heparin enoxaparin sodium (Lovenox®, Aventis Pharmaceuticals, Inc.), unfractionated heparin (UFH), or the non-heparin glycosaminoglycan danaparoid sodium (Orgaran®, Organon Inc., West Orange, N.J.) in 0.32% citrate or in plasma anticoagulated with 0.32% citrate. Enoxaparin is commonly used clinically as a low molecular weight heparin (LMWH). Danaparoid is commonly used clinically as a non-heparin glycosaminoglycan anticoagulant. Currently, the only FDA approved drug to target UFH is protamine, which is not effective in vivo against LMWH or a non-heparin glycosaminoglycan such as danaparoid. Buffer and ATIII are added to form the heparin/ATIII complex, peptide is added, then Factor Xa, reporter dye substrate for Factor Xa activity, and stop solution, and the dye concentration is read at 405 nm. The absorbance of the dye increases with increasing Factor Xa activity, and thus is inversely proportional to the heparin (anti-Factor Xa activity) concentration. Peptides were tested in plasma obtained from three volunteers (A, B, and C). Platelet function inhibitors PG12 and theophylline were added to the blood immediately upon collection.
Results. […] (ARKKAAKA)3VLVLVLVL (SEQ ID NO:5) and VLVL(ARKKAAKA)3ARKKCAKA (SEQ ID NO:38) were able to neutralize about 0.4 U/ml anti-Factor Xa activity of LMWH at a concentration of 12 μg/ml, which would be an effective dose for patients. (AKKARA)6 (SEQ ID […]), (ARKKAAKA)4 (SEQ ID NO:31) and (ARKKAAKA)3ARKKCAKA […] 0.3-0.35 U/ml. In contrast, 12 μg protamine only neutralized about 0.25 U/ml of LMWH under these conditions.

[2] = tested on: anti-Factor Xa Activity of Unfractionated Heparin; experiment: Anti-Factor Xa assay: neutralization of unfractionated heparin in citrate or plasma in vitro; format: biochemical, human; conditions: in both citrate and plasma
Method: as §1, with “collection. […]” for “collection.”

[3] = Affinity coelectrophoresis (ACE) of peptide binding to radiolabeled low Mr heparin; parameters: species or system pig
Description: Preparation of Radiolabeled Heparin. Whole heparin from pig intestinal mucosa (Sigma) was tyramine end-labeled and radiolabeled with Na^125I (Amersham, Pharmacia Biotech, Inc., Piscataway, N.J.) to an average specific activity≅1.0×10^7 CPM/μg as described (San Antonio, J. D., et al., Biochemistry, 32:4746-4755, 1993). Radiolabeled heparin was fractionated on Sephadex G-100 (Bio-Rad Laboratories, Hercules, Calif.) and the final≅12% of material to elute was retained as the low Mr material of ≦6,000 (Jordan, R., D. Beeler, and R. Rosenberg, J. Biol. Chem., 254:2902-2913, 1979; Laurent, T. C., et al., Biochem. J., 175:691-701, 1978).
Analysis of Peptide-Heparin Interactions by Affinity Coelectrophoresis (ACE). ACE was used to study interactions between peptides and low molecular weight (low Mr) heparin (WO00/45831). In ACE, trace concentrations of radiolabeled heparin are electrophoresed through agarose lanes containing peptides at various concentrations. These analyses are used to determine the dissociation constants (Kd's). The electrophoretic patterns of radiolabeled heparin are then visualized using a phosphorimager, and the dissociation constant (Kd) corresponds to the protein concentration at which the heparin is half shifted from being fully mobile at very low protein concentrations to maximally retarded at saturating protein concentrations. The lower the Kd value, the higher the affinity.
Binding of radiolabeled heparin to peptides was studied by ACE as detailed elsewhere (San Antonio, J. D., et al., Biochemistry, 32:4746-4755, 1993). […] Briefly, peptides were dissolved in 1×ACE running buffer, 50 mM sodium 3-(N-morpholino)-2-hydroxypropanesulfonate (MOPSO, Sigma)/125 mM sodium acetate, pH 7.0, and serially diluted in running buffer at 2× concentrations. Peptides were then mixed 1:1 with 2% agarose/1% CHAPS, 3-[(3-cholamidopropyl)dimethylammonio]-1-propanesulfonate, (Boehringer Mannheim, Indianapolis, Ind.), and loaded into wells of a 1% agarose gel. Radiolabeled heparin was then loaded in a slot on the anode side of the gel, and electrophoresed through the peptide-containing wells, towards the cathode. Gels were dried and PG mobility was measured with a Phosphorimager (Molecular Dynamics, Sunnyvale, Calif.) by scanning each protein lane and determining the relative radioactivity content per 88-μm pixel through the length of the lane. Retardation coefficient (R) measurements, binding isotherm curve fittings, and apparent Kd value determinations were calculated as detailed previously (Lee, M. K., and A. D. Lander, Proc. Natl. Acad. Sci. USA, 88:2768-2772, 1991; San Antonio, J. D., et al, Biochemistry, 32:4746-4755, 1993).
Retardation coefficients (R) for the migration of low Mr 1^25I-tyramine-heparin through peptides were determined from ACE gel electrophoretograms, and are plotted against peptide concentration. Smooth curves represent non-linear least-squares fits to the equation R=R∞/{1+(Kd/[peptide])^n}.

[4] = tested on: Lovenox ® Activity in Blood from Patients Treated with Lovenox ®; experiment: Neutralizing Lovenox activity in blood from patients treated with Lovenox (anti-Factor Xa assay); format: biochemical, human; conditions: Peptide 12 μg/ml
Method: Blood was obtained from volunteers who were being treated with Lovenox® for their medical conditions after obtaining signatures on informed consent forms as approved by the Institutional Review Board. The assays to test neutralization of Lovendx® were performed as described for Table 2. A dose response from 1-60 μg/ml was evaluated as in Table 2.
The dose response pattern for the effective peptides was similar to the dose response in control plasma to which Lovenox® had been added. Each data point represents the mean and standard deviation of triplicate analyses on the same sample of blood from each patient.

platelets = experiment: Platelet aggregation with aggregation-inducing agents; format: cell-based, human; conditions: 12 μg/ml; Lovenox 0.5 U/ml; collagen, ADP, ristocetin, epinephrine, SFFLRN, A23187
Method: Plasma from six volunteers was tested with various aggregation inducing agents, at several concentrations of each agent, and with six different peptides of the invention. The effect of heparin-binding peptides of the invention on platelet aggregation was determined using standard procedures as previously described. The six peptides which were synthesized and tested were: (ARKKAAKA)4 (SEQ ID NO:31), ARKKAAKA(A16)ARKKAAKA (SEQ ID NO:30), (ARKKAAKA)3ARKKCAKA (SEQ ID NO:33), (ARKKAAKA)3VLVLVLVL (SEQ ID NO:5), C(ARKKAAKA)4C (SEQ ID NO:34), and (AKKARA)6 (SEQ ID NO:32).
The aggregation-inducing agents tested were: collagen, adenosine diphosphate (ADP), ristocetin, epinephrine, the thrombin receptor peptide SFFLRN, and calcium ionophore A23187. Platelets were subjected to protamine, or to SEQ ID NOS:31, 33, 30, 5, 34, or 32 at 12 μg/ml, and Lovenox® at 0.5 U/ml. Platelet aggregation in response to agonists was monitored and percent aggregation was determined over a five minute interval.
The agonist was added after equilibration of the platelets for one minute.

[5] = Hemodynamic effects in rats without prior Lovenox; conditions: no Lovenox
Method: Rats were sedated, and catheters were inserted into the femoral vein and femoral artery. The femoral artery catheter was hooked up to the computerized monitoring system, and injections were made through the femoral vein. Peptides were injected into rats without prior injection of Lovenox. Two or more rats (300-350 grams) were treated with 2 mg protamine or peptide.
At the times indicated in the figures, the following actions were taken: administration of saline to insure that the animal and intubations were stable; administration of test peptide or protamine alone; then administration of protamine.

[6] = Hemodynamic effects in rats after administration of the LMWH Lovenox; conditions: in the presence of LMWH Lovenox
Method: Next, experiments were performed in which the animals were treated with the peptides after the administration of the LMWH Lovenox®, as would happen in the clinical situation, because binding of peptides to LMWH would be expected to reduce the effects of the peptides on hemodynamic function.

Substance: ARKKAAKAARKKAAKAARKKAAKAARKKCAKA [(ARKKAAKA)3ARKKCAKA, (ARKKAAKA)3(ARKKCAKA)]
effect on platelet aggregation (platelets): no significant inhibition or enhancement of aggregation
effect on blood pressure ([5]; 2 mg per rat): did not cause a change in blood pressure
effect on blood pressure and heart rate / toxicity [6]: no significant effect on blood pressure and heart rate; also recorded: All rats tested showed no response to peptide

Substance: (ARKKAAKA)4VLVLVLVL (ARKKAAKAARKKAAKAARKKAAKAARKKAAKAVLVLVLVL; Fragment) [SEQ ID NO:1]
affinity for low molecular weight heparin [3]: high affinity

Substance: AKKARAAKKARAAKKARAAKKARAAKKARAAKKARA [(AKKARA)6]
effect on platelet aggregation (platelets): no significant inhibition or enhancement of aggregation
reduction/drop of blood pressure ([5]; 2 mg per rat (300-350 grams)): about 30 mm Hg
time to nadir of blood pressure ([5]; 2 mg per rat): 2 min

Continued, in another order:

affinity for low molecular weight heparin [3]: negligible affinity
Substance: ARKKAAKA (Fragment) [monomer, control peptide, reference compound]
effect in the anti-Factor Xa assay for Lovenox [1]: no effect
effect in the anti-Factor Xa assay for UFH [2]: no effect

Kd ([3]; pH 7.0, mean and standard deviation of four assays, read-out: Kd (nM), affinity for low molecular weight heparin): 5220 ± 1550 nM
Substance: VLVLARKKAAKAPARKKAAKAVLVL
Lovenox ® Neutralized ([4]; blood of Lovenox-treated Patient Number 1): 0.027 U/ml
Lovenox ® Neutralized ([4]; blood of Lovenox-treated Patient Number 2): 0.012 U/ml
Lovenox ® Neutralized ([4]; blood of Lovenox-treated Patient Number 3): 0.021 U/ml
Lovenox ® Neutralized ([4]; blood of Lovenox-treated Patient Number 4): 0.022 U/ml
Lovenox ® Neutralized ([4]; blood of Lovenox-treated Patient Number 5): 0 U/ml
Lovenox ® Neutralized ([4]; blood of Lovenox-treated Patient Number 8): 0.018 U/ml
Lovenox ® Neutralized ([4]; blood of Lovenox-treated Patient Number 9): 0.007 U/ml
Lovenox ® Neutralized ([4]; blood of Lovenox-treated Patient Number 10): 0.025 U/ml
Lovenox ® Neutralized ([4]; blood of Lovenox-treated Patient Number 11): 0.050 U/ml
